Assay [1] has as its system CSF-1-dependent M-NFS-60 mouse myeloid leukemia cell. Kind of assay: M-NFS-60 cell proliferation assay (CellTiter-96). The assay is classed as cell-based. Particulars: Cytotoxicity, M-NFS-60 cells, 72 hours. The procedure:
(§1) Inhibition of cell growth by compounds was measured using CellTiter™-96 assay. The cytotoxicity of compounds was evaluated in CSF-1-dependent M-NFS-60 mouse myeloid leukemia cell, FLT3 signal addicted MV4-11 human acute myeloid leukemia cell with FLT3-ITD mutation, c-KIT signal addicted Kasumi-1 human acute myeloid leukemia cell with c-KIT N822K activating mutation, and THP-1 human acute monocytic leukemia cell harboring NRAS G12D mutation.
The compounds disclosed herein were tested in M-NFS-60 cell proliferation assay to determine their cellular potency against CSF-1R. […] Inhibition of CSF-1R kinase activity will cause reduced growth and/or cell death. […] Cells were allowed to expand until reaching saturation at which point they were subcultured or harvested for assay use.
(§2) M-NFS-60, Kasumi-1, MV4-11 and THP-1 cells were seeded into 96-well plates at 2000, 64000, 6500, and 5000 cells/well, respectively, and incubated at 37° C., 5% CO2 overnight. Then, these seeded cells were treated with increasing concentrations of the test compounds and incubated for another 72 hours. At the end of the incubation, CellTiter96® AQueous One Solution Reagent (Promega) was added and incubated for 4 hours. Cell viability was determined by measuring absorbance at 490 nm using EMax® microplate reader (Molecular Devices).

Assay [2] has as its system MV4-11 human acute myeloid leukemia cell with FLT3-ITD mutation. Kind of assay: MV4-11 cell proliferation assay (CellTiter-96). The settings on record: Cytotoxicity, MV4-11 cells, 72 hours. It counts as cell-based. The procedure:
as §1
The compounds disclosed herein were tested in MV4-11 cell proliferation assay to determine their cellular potency against FLT3 kinase. MV4-11 human acute myeloid leukemia cells harbor ligand-independent FLT3-ITD activating mutation, which render its proliferation FLT3-ITD dependent. Inhibition of FLT3 kinase activity will cause reduced growth and/or cell death. […] Cells were allowed to expand until reaching saturation at which point they were subcultured or harvested for assay use.
as §2

Assay [3] concerns Kasumi-1 human acute myeloid leukemia cell with c-KIT N822K activating mutation. Kind of assay: Kasumi-1 cell proliferation assay (CellTiter-96). It counts as cell-based. The settings on record: Cytotoxicity, Kasumi-1 cells, 72 hours. How it is done: as §1
The compounds disclosed herein were tested in Kasumi cell proliferation assay to determine their cellular potency against c-KIT kinase. Kasumi human acute myeloid leukemia cells harbor ligand-independent N822K c-KIT activating mutation, thus the cell proliferation relied on c-KIT signal. Inhibition of c-KIT kinase activity will cause reduced growth and/or cell death. […] Cells were allowed to expand until reaching saturation at which point they were subcultured or harvested for assay use.
as §2

The test system of assay [4] is THP-1 human acute monocytic leukemia cell harboring NRAS G12D mutation. Briefly: THP-1 cell proliferation assay (counter screen, CellTiter-96). The settings on record: Cytotoxicity, THP-1 cells (counter screen), 72 hours. It counts as cell-based. How it is done:
as §1
THP-1 human acute monocytic leukemia cells harbor NRAS G12D mutation, which renders cell proliferate independently of class III RTKs signal. […] Cells were allowed to expand until reaching saturation at which point they were subcultured or harvested for assay use.
as §2
On the technique in general: The purpose of a counterscreen is to sort out artefacts and off-target activity.

Assay [5] addresses PDGFRβ kinase (Homo sapiens (Human), UniProt P09619). Briefly: PDGFRβ kinase assay (radiometric). The settings on record: bound. The assay is classed as biochemical. The procedure: (§3) Inhibition of PDGFRβ kinase activity by a test compound disclosed herein was estimated by radiometric assay. Standard assay conditions were 10 ng of recombinant PDGFRβ (SignalChem) with 2 μg of substrate Poly-(Glu 4:Tyr 1) (sigma) in the assay buffer in kinase reaction buffer (10 mM MOPS pH 7.0, 0.21 mM EDTA, 0.5% glycerol, 0.001% Brij-35, 0.01 2-mercaptoehtanol, 1 mg/ml BSA, 10 mM MgCl2, 10 mM MnCl2, 10 μM ATP, 0.1 μCi per well [^33P]-ATP), in the presence of test compound (diluted in final concentration of 4% DMSO) or DMSO control, with a final volume of 25 μl for 60 minutes at 30° C. The reaction was stopped by adding 5 μl of 3% phosphoric acid solution. Total reaction solution was then harvested onto a filter plate (UniFilter-96 GF/B, PerkinElmer), and washed 20 times for 5 min with dH2O. 30 μl of MicroScint™-20 Cocktail (PerkinElmer) was added to dried plate. The plate was sealed and counted using a TopCount scintillation detector (PerkinElmer). […] The IC50 values of quinoxaline compounds of this invention against PDGFRβ kinase were determined using the GraphPad Prism 5 software.
(§4) The IC50 values for selected quinoxaline compounds of this invention against CSF-1R, c-KIT, FLT3, and PDGFRβ are summarized in Table 3.

Assay [6] addresses c-KIT kinase (Homo sapiens (Human), UniProt P10721). Briefly: c-KIT kinase assay (radiometric). The assay is classed as biochemical. The procedure:
as §3, with “of c-KIT” for “of PDGFRβ”, “were 20” for “were 10”, “recombinant c-Kit” for “recombinant PDGFRβ”, “well [^33P]-ATP,” for “well [^33P]-ATP),”, “against c-KIT” for “against PDGFRβ”
as §4

Assay [7] has as its target FLT3 kinase (Homo sapiens (Human), UniProt P36888). Kind of assay: FLT3 kinase assay (radiometric). The assay is classed as biochemical. The settings on record: bound. How it is done: Inhibition of FLT3 kinase activity by a test compound disclosed herein was estimated by radiometric assay. Standard assay conditions were 5 ng of recombinant FLT3 (Thermo Fisher) with 2 μg of substrate Poly-(Glu 4:Tyr 1) (sigma) in the assay buffer in kinase reaction buffer (10 mM MOPS pH 7.0, 0.21 mM EDTA, 0.5% glycerol, 0.001% Brij-35, 0.01 2-mercaptoehtanol, 1 mg/ml BSA, MgCl2 10 mM, 10 μM ATP, 0.1 μCi per well [^33P]-ATP, in the presence of test compound (diluted in final concentration of 4% DMSO) or DMSO control, with a final volume of 25 μl for 60 minutes at 30° C. The reaction was stopped by adding 5 μl of 3% phosphoric acid solution. Total reaction solution was then harvested onto a filter plate (UniFilter-96 GF/B, PerkinElmer), and washed 20 times for 5 min with dH2O. 30 μl of MicroScint™-20 Cocktail (PerkinElmer) was added to dried plate. The plate was sealed and counted using a TopCount scintillation detector (PerkinElmer). […] The IC50 values of quinoxaline compounds of this invention against FLT3 kinase were determined using the GraphPad Prism 5 software.
as §4

For orientation: IC50 means the concentration needed to halve the response being measured.

Chain of c-KIT kinase (P10721 26-976): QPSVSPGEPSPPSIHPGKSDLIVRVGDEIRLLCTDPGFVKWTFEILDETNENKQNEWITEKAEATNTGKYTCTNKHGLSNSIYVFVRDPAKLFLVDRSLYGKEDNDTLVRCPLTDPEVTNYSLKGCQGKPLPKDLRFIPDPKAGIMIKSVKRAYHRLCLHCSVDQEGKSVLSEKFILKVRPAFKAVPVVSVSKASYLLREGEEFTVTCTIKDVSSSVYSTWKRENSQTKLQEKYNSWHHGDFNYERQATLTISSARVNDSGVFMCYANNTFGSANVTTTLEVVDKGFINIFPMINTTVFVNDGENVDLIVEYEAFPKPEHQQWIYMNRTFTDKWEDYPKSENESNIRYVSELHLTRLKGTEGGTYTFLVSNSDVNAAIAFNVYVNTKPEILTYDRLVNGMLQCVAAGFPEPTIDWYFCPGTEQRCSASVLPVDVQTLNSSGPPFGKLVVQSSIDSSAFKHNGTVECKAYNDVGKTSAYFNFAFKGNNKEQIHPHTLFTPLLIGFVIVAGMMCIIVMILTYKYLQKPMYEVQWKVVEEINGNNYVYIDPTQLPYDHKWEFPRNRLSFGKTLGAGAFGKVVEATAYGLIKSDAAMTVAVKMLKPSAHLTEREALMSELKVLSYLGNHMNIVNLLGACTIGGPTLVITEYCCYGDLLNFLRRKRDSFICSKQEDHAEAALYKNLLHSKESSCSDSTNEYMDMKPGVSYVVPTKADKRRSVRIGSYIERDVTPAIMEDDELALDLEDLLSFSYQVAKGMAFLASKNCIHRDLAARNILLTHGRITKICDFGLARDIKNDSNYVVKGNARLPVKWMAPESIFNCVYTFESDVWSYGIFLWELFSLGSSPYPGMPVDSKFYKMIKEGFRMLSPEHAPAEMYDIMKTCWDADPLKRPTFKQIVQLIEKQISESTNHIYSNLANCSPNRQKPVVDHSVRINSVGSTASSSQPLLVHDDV
Chain of PDGFRβ kinase (P09619 33-1106): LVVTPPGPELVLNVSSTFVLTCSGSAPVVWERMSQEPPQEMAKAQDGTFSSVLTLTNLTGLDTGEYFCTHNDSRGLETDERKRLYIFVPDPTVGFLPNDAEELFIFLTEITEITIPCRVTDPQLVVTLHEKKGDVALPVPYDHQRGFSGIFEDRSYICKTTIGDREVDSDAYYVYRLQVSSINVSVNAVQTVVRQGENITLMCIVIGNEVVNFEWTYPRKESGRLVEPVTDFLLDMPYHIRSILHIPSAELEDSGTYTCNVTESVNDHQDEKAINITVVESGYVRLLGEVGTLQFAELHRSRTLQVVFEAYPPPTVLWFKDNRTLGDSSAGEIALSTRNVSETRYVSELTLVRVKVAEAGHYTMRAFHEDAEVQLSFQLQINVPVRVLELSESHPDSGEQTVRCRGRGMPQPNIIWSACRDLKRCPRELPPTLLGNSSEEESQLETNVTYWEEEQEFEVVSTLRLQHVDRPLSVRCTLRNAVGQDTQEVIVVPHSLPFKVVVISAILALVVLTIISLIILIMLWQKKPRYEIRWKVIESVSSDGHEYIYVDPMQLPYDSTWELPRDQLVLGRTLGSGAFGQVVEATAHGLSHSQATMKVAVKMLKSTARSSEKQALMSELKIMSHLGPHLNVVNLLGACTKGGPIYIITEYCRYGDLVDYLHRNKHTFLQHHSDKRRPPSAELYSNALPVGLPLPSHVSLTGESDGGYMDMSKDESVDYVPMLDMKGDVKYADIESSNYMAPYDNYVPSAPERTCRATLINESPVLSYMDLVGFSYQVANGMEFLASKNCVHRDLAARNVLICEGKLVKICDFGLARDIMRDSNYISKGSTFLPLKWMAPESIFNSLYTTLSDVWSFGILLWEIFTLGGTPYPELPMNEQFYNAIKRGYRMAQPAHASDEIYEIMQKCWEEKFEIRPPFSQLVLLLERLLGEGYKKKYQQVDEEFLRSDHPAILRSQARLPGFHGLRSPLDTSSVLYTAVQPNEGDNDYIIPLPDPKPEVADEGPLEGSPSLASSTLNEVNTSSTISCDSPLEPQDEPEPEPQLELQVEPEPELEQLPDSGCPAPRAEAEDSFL
Chain of FLT3 kinase (P36888 27-993): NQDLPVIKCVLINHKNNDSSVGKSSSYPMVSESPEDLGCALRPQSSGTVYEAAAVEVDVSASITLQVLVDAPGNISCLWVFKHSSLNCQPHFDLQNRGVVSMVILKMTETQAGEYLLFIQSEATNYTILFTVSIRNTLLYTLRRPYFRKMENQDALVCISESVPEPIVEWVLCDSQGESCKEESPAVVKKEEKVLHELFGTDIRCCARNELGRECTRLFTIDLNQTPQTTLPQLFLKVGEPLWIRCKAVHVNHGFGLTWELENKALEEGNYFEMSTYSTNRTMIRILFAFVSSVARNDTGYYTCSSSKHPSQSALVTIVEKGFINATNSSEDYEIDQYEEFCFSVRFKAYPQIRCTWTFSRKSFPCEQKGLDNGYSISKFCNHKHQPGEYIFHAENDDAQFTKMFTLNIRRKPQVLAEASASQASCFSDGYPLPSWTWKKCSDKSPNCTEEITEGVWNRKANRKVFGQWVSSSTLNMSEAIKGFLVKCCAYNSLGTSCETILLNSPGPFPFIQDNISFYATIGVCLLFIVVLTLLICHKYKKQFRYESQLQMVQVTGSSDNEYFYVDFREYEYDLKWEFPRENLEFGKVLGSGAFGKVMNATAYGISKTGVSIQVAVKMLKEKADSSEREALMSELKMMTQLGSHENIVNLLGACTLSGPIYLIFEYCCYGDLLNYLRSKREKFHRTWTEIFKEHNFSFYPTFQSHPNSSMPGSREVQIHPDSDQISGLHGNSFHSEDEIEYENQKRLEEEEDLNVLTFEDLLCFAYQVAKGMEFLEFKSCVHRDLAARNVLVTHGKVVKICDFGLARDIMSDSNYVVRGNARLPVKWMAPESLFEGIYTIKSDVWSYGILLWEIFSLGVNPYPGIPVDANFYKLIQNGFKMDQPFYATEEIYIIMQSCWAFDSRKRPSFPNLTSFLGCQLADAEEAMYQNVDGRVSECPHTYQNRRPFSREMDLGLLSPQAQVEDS

For the molecule `COc1cnc2ccc(Nc3ccc(NCc4ccc(C(F)(F)F)nc4)nc3)c(C#N)c2n1` [Example 1, 3-methoxy-6-((6-(((6-(trifluoromethyl)pyridin-3-yl)methyl)amino)pyridin-3-yl)amino)quinoxaline-5-carbonitrile], the IC50 was more than 10 µM in assay [1], 1 to 10 µM in assay [2], 1 to 10 µM in assay [3] and more than 10 µM in assay [4].

Regarding `COc1cnc2ccc(Nc3ccc(OCc4cccnc4)nc3)c(C#N)c2n1` [Example 6, 3-methoxy-6-((6-(pyridin-3-ylmethoxy)pyridin-3-yl)amino)quinoxaline-5-carbonitrile], the IC50 in assay [1] was more than 10 µM; in assay [2] it was 1 to 10 µM; in assay [3] it was more than 10 µM; in assay [4], more than 10 µM.

On to `COc1cnc2ccc(Nc3ccc(OCc4cccnc4)c(OC)c3)c(C#N)c2n1` [Example 8, 3-methoxy-6-((3-methoxy-4-(pyridin-3-ylmethoxy)phenyl)amino)quinoxaline-5-carbonitrile], for which the IC50 is more than 10 µM in assay [1], 1 to 10 µM in assay [2], more than 10 µM in assay [3] and more than 10 µM in assay [4].

As to `COc1ccc(COc2ccc(Oc3ccc4ncc(OC)nc4c3C#N)cc2OC)cc1` [Example 10, 3-methoxy-6-(3-methoxy-4-((4-methoxpenzyl)oxy)phenoxy)quinoxaline-5-carbonitrile], the IC50 in assay [5] was more than 1 µM.

For `COc1cnc2ccc(Nc3ccc(OC)c(OC)c3)c(C#N)c2n1` [Example 11, 6-((3,4-dimethoxyphenyl)amino)-3-methoxyquinoxaline-5-carbonitrile], the IC50 in assay [1] is more than 10 µM; in assay [2] it was 1 to 10 µM; in assay [3], 1 to 10 µM; in assay [4] it was more than 10 µM.

For `COc1ccc(CNc2ccc(Nc3ccc4ncc(OC)nc4c3C#N)cc2OC)cc1` [Example 14, 3-methoxy-6-((3-methoxy-4-((4-methoxybenzyl)amino)phenyl)amino)quinoxaline-5-carbonitrile], the IC50 in assay [1] is more than 10 µM; in assay [2], 1 to 10 µM; in assay [3] it was more than 10 µM; in assay [4], more than 10 µM.

In the case of `COc1ccc(COc2ccc(Oc3ccc4ncc(OC)nc4c3C#N)cc2OC)cc1` [Example 26, 3-methoxy-6-(3-methoxy-4-((4-methoxybenzyl)oxy)phenoxy)quinoxaline-5-carbonitrile], the IC50 in assay [6] (bound), in assay [7] and in assay [5] was more than 1 µM in each case.

Turning to `CCOc1cc(Oc2ccc3ncc(OC)nc3c2C#N)ccc1OCc1ccc(OC)cc1` [Example 30, 6-(3-ethoxy-4-((4-methoxybenzyl)oxy)phenoxy)-3-methoxyquinoxaline-5-carbonitrile], the IC50 in assay [6] (bound), in assay [7] and in assay [5] was more than 1 µM in each case.

As for `COc1cc(Nc2ccc3ncc(N4CCOCC4)nc3c2C#N)ccc1OCC1(C)COC1` [Example 41, 6-((3-methoxy-4-((3-methyloxetan-3-yl)methoxy)phenyl)amino)-3-morpholinoquinoxaline-5-carbonitrile], the IC50 in assay [1] was more than 10 µM; in assay [2], 1 to 10 µM; in assay [3], 1 to 10 µM; in assay [4] it was more than 10 µM.

Turning to `COc1cc(Nc2ccc3ncc(N4CCOCC4)nc3c2C#N)ccc1OCC1CCN(C)CC1` [Example 42, 6-((3-methoxy-4-((1-methylpiperidin-4-yl)methoxy)phenyl)amino)-3-morpholinoquinoxaline-5-carbonitrile], the IC50 in assay [1] is 1 to 10 µM; in assay [2], 1 to 10 µM; in assay [3], 1 to 10 µM; in assay [4] it was more than 10 µM.

As for `COc1cc(Nc2ccc3ncc(N4CCOCC4)nc3c2C#N)ccc1OCc1cccnc1` [Example 43, 6-((3-methoxy-4-(pyridin-3-ylmethoxy)phenyl)amino)-3-morpholinoquinoxaline-5-carbonitrile], the IC50 is less than 0.1 µM in assay [6] (class symbol), more than 1 µM in assay [7] and more than 1 µM in assay [5].

For `COc1cc(Nc2ccc3ncc(N4CCOCC4)nc3c2C#N)ccc1OCC1CCCC1` [Example 44, 6-((4-(cyclopentylmethoxy)-3-methoxyphenyl)amino)-3-morpholinoquinoxaline-5-carbonitrile], the IC50 in assay [1] is 1 to 10 µM; in assay [2], 1 to 10 µM; in assay [3], 1 to 10 µM; in assay [4] it was more than 10 µM.

Take `COc1cc(Nc2ccc3ncc(N4CCOCC4)nc3c2C#N)ccc1OCc1ccc(C)nc1` [Example 54, 6-((3-methoxy-4-((6-methylpyridin-3-yl)methoxy)phenyl)amino)-3-morpholinoquinoxaline-5-carbonitrile]: the IC50 is less than 0.1 µM in assay [6] (class symbol), more than 1 µM in assay [7] and more than 1 µM in assay [5].

For `COc1cc(Nc2ccc3ncc(N4CCOCC4)nc3c2C#N)ccc1OCc1cnc(C)nc1` [Example 128, 6-((3-methoxy-4-((2-methylpyrimidin-5-yl)methoxy)phenyl)amino)-3-morpholinoquinoxaline-5-carbonitrile], the half-maximal inhibitory concentration (IC50) is 0.3 to 1 µM in assay [6] (class symbol), more than 1 µM in assay [7] and more than 1 µM in assay [5].

Consider `COc1cc(Nc2ccc3ncc(N4CCOCC4)nc3c2C#N)ccc1OCc1cnn(C2CC2)c1` [Example 134, 6-((4-((1-cyclopropyl-1H-pyrazol-4-yl)methoxy)-3-methoxy-phenyl)amino)-3-morpholinoquinoxaline-5-carbonitrile], for which the IC50 is less than 0.1 µM in assay [6] (class symbol), more than 1 µM in assay [7] and more than 1 µM in assay [5].

Source of the values: US10689362B2, “Quinoxaline compounds as type III receptor tyrosine kinase inhibitors” (Development Center for Biotechnology, priority 2016, dated 2020).
